Source: US9937194B1, “Compounds and methods for treating inflammatory diseases” (priority 2009, dated 2018)
Where two headings read alike, the source gives them in different places. One block for each compound: values may come before it.

Legend:
HDAC activity = assay: H2O2-induced reduction of HDAC activity in PMA-differentiated U937 cells; assay type: cell-based, human; conditions: for HDAC activity reached compared with untreated controls: H2O2 200 μM, comparators at highest doses tested; for restoration of H2O2-reduced HDAC activity (%): test concentration not given, bracketed second value not explained
Procedure: In cell HDAC assay. Cells are incubated with Fluor de Lys™ substrate for 1 hr before lyses. Total HDAC activity from whole cell extracts is measured using the HDAC Fluorimetric Assay/Drug Discovery Kit (BIOMOL® International, Inc., Plymouth Meeting, Pa.).
HDAC expression: In cell HDAC activity assay: U937 is differentiated to macrophage type cells by PMA for 3 days. HDAC fluorescent substrate (Biomol) is added before exposure of oxidative stress (H2O2, 200 μM) or Tobacco smoke conditioned medium for 4 hrs. HDAC activity is measured (Biomol kit). Compounds at different concentrations are treated 20 min before oxidative stress treatment.
PMA-differentiated macrophage-like cells are pretreated with compounds described herein for 20 min. After H2O2 (200 μM) stimulation for 4 hrs, HDAC activity is assayed. Data are expressed as fold changes against positive control treated with H2O2 only. Values represent means of four experiments±SEM.

Akt = assay: H2O2-induced phosphorylation of Akt in PMA-differentiated U937 cells (western blot); assay type: cell-based, human
Procedure: Cell Lysis and Western Blotting. Whole cell protein extracts are prepared using modified RIPA buffer (50 mM Tris HCL pH 7.4, 0.5% NP-40, 0.25% Na-deoxycholate, 150 mM NaCl with freshly added complete protease (Roche). Phosphatase inhibitor (Active Motif) is also added when required. Protein concentration is determined using the Bio-Rad Protein Assay (Bio-Rad). Proteins are separated by SDS-PAGE under denaturing conditions, and electrotransferred to a nitrocellulose membrane (Amersham Biosciences, Amersham, U.K.) (Western blotting). The membranes are blocked in TBS containing 0.05% Tween 20 and 5% non-fat dried milk, and then incubated with anti-pAkt or Akt antibody followed by an horse radish peroxidase-conjugated secondary antibody (Dako UK Ltd., Ely, UK). Bound antibodies are visualized by ECL Plus (GE Healthcare UK Ltd., Little Chalfont, UK). The band density is calculated by densitometry (UVP Bioimaging Systems, Cambridge, UK) using Labworks software (Ultra-Violet Products, Cambridge, UK).
Effects of compounds on H2O2-induced phosphorylation of Akt in PMA-differentiated U937 cells. PMA-differentiated macrophage-like cells are pretreated with compounds described herein for 20 min. After H2O2 (1 mM) stimulation for 30 min, cells are lysed. Phosphorylation levels of Akt are measured by western blot. Data are calculated relative to total protein, and expressed as fold changes against positive control treated with H2O2 only. Values represent means of three or four experiments±SEM.

IL-8 = assay: LPS-induced IL-8 release in PMA-differentiated U937 cells (ELISA); assay type: cell-based, human; conditions: for IC50: LPS-induced IL-8 release, PMA-differentiated U937, NA = inactive; for IL-8 inhibition (%): test concentration not given
Procedure: (§1) Cytokine ELISA. LPS-induced IL-8, TNFα concentrations and TNFα-induced IL-8 concentrations are determined by sandwich ELISA according to the manufacturer's instructions (R&D Systems Europe). IC50 values for dexamethasone on IL-8 production are calculated using the computer program Prism 4.0 (GraphPad Software Inc., San Diego, Calif.) as a marker for steroid sensitivity.
(§2) Effects of compounds on LPS-induced IL-8 and TNFα release in PMA-differentiated U937 cells. PMA-differentiated macrophage-like cells are pretreated with compounds described herein for 1 hr, followed by LPS (100 ng/ml) stimulation for 4 hrs. LPS-induced IL-8 and TNFα release is evaluated by ELISA. Values represent means of three experiments±SEM.

TNFα = assay: LPS-induced TNFα release in PMA-differentiated U937 cells (ELISA); assay type: cell-based, human; conditions: for IC50: LPS-induced TNFα release, PMA-differentiated U937, NA = inactive; for TNFα inhibition (%): test concentration not given
Procedure: as §1, §2

MMP9 = assay: PMA-induced MMP9 expression in U937 cells (gelatin zymography); assay type: cell-based, human; conditions: for MMP9 inhibition (%): test concentration not given, bracketed second value not explained
Procedure: Zymography. MMP9 enzyme activity is measured by gelatin zymography. 5 μl of supernatants were diluted with 5 μl Laemli sample buffer (Bio-Rad) and are loaded on a Novex® 10% Zymogram (Gelatin) gel (Invitrogen). After electrophoresis (90 min, 125 V, 35 mA, 5 W) gels are incubated with 1× Novex® zymogram renaturing buffer (Invitrogen) for 30 min at room temperature with gentle agitation. Gels are then rinsed in 1× Novex® zymogram developing buffer (Invitrogen) for 30 min at room temperature with gentle agitation prior to overnight incubation in the developing buffer at 37° C. After incubation the gels are stained using the colloidal blue staining kit (Invitrogen) with buffer containing 20% methanol and 70% distilled water to visualize the zymogen bands. Relevant band intensities are quantified by densitometric analysis using the UVP GelDoc-It system.
Effects of compounds on PMA-induced MMP9 expression in U937 cells. U937 cells are pretreated with compounds described herein for 1 hr, followed by PMA (50 ng/ml) treatment for 48 hrs. After 48 hrs supernatants are collected for zymography. MMP9 enzyme activity is measured by gelatin zymography. Data are expressed as fold changes against positive control treated with PMA only. Values represent means of three experiments±SEM.

U937 cells = assay: H2O2-induced steroid insensitivity in U937 cells (dexamethasone IC50 on TNFα-induced IL-8); assay type: cell-based, human; conditions: highest concentration tested (100 μM); H2O2 200 μM
Procedure: as §1
Restoration of steroid sensitivity. U937 cells: U937 are treated with oxidative stress (H2O2, 200 μM or 0.15 dilution CSM (cigarette smoke conditioned medium)) and 4 hours later, stimulated with TNFα (10 ng/ml) in the presence of dexamethasone (10^−11-10^−6M). Supernatant and cells are collected 24 hrs after stimulation and IL-8 is measured by conventional ELISA. As the index of corticosteroid sensitivity, IC50 of dexamethasone is calculated. Test compounds are treated 20 min before oxidative stress treatment.
Effects of compounds on H2O2-induced steroid insensitivity in U937 cells. Cells stimulated with H2O2 (200 μM) overnight are incubated with compounds described herein for 30 min under H2O2 (200 μM) exposure. The cells are treated with dexamethasone (10^−11 to 10^−6 M) for 20 min, followed by the TNFα stimulation overnight. TNFα-induced IL-8 release is evaluated by ELISA and IC50 values for dexamethasone on IL-8 production are calculated using Prism. Data are expressed as fold changes against positive control treated with H2O2 only. Values represent means of four experiments±SEM. H2O2 exposure reduces dexamethasone sensitivity by approximately 4 fold based on calculated IC50 values of TNFα-induced IL-8 production.

[1] = assay type: cell-based
Procedure: The human monocytic cell line U937 and the human type II alveolar epithelial carcinoma cell line A549 were obtained from the American Type Culture Collection (ATCC, Rockville, Md.). PBMCs from COPD patients were obtained in Brompton hospital and separated by AccuSPIN (Sigma-Aldrich, Poole, UK). Cells were cultured in complete growth medium (Sigma-Aldrich) (RPMI 1640 for U937, PBMCs, and Dulbecco's modified essential medium (DMEM) for A549) supplemented with 10% fetal bovine serum (FBS) and 1% L-glutamine at 37° C. in a humidified atmosphere with 5% CO2. U937 were differentiated into an adherent macrophage-like morphology by exposure to PMA (50 or 100 ng/ml) for 48 hrs in complete growth medium. Cell viability was assessed microscopically by trypan blue staining. Cell toxicity was determined by MTT assay as needed. This study was approved by the ethics committee of the Royal Brompton Hospitals, and all subjects gave written informed consent.

K. pneumonia 13883 = assay: MIC; assay type: cell-based; conditions: in µg/mL
H. influenzae ATCC 49247 = assay: MIC; assay type: cell-based
H. influenzae LC002 = assay: MIC; assay type: cell-based
S. pneumoniae ATCC 49619 = assay: MIC; assay type: cell-based
[2] = system: S. aureus ATCC 29213 (MSSA) MLS-S; assay: MIC; assay type: cell-based
S. aureus MRSA 33591 = assay: MIC; assay type: cell-based
E. faecium ATCC 19434 = assay: MIC; assay type: cell-based
HDAC2 mRNA = assay: Cigarette smoke extract-induced reduction of HDAC2 mRNA in A549 cells; assay type: cell-based, human
Procedure: Preparations of cigarette smoke extract. To prepare the cigarette smoke extract, two full-strength Marlboro cigarettes (filters removed; Phillip Morris USA, Richmond, Va.) are combusted through a modified 60-ml syringe apparatus, and the smoke passed through 20 ml of DMEM medium. Each cigarette generally yields five draws of the syringe (to the 60-ml mark), with each individual draw taking approximately 10 s to complete. Cigarette smoke extract is then passed through a 0.20-μm filter to sterilize and remove particulate matter and is used immediately unless otherwise stated.
Quantitative RT-PCR. Total RNA extraction and reverse transcription are performed using an RNeasy kit (QIAGEN, Crawley, UK) and a High-Capacity cDNA Reverse Transcription Kits (Applied Biosystems, Foster City, Calif.). Gene transcript level of HDAC2 (HS00231032_M1, Applied Biosystems, California, USA) and the house-keeping gene, guanine nucleotide binding protein beta polypeptide-2-like 1 (GNB2L1) (HS00272002_M1, Applied Biosystems) are quantified by real-time PCR using a TaqMan® Gene Expression Master Mix (Applied Biosystems) on a Rotor-Gene 6000 (Corbett Research, Cambridge, UK). Transcripts are analysed by the delta (D) CT method and variations in cDNA concentrations between different samples were corrected using GNB2L1.
Effects of macrolides on cigarette smoke extract-induced (CSE-induced) reduction of HDAC2 mRNA in A549 cells. Cells pretreated with compounds described herein for 30 min are exposed to CSE (0.15 O.D.) for 1 hr. The cells are washed twice and incubated with medium only for 4 hrs. Data are expressed as % reduction from baseline (left) or % increase from baseline under H2O2. Values represent means of three experiments±SEM. Example 33 reverses cigarette smoke extract-induced (CSE-induced) reduction of HDAC2 mRNA expression in A549 cells at concentrations of about 10 μM or greater, and with statistical significance of p<0.05 versus treatment with CSE only (one-way ANOVA with post hoc test, n=3) at doses of about 30 μM or greater.

IC50 (IL-8; Homo sapiens, U-937): 507 ± 44 µM
IC50 (TNFα; Homo sapiens, U-937): 426 ± 64 µM
Structure (SMILES): CC[C@H]1OC(=O)[C@H](C)[C@@H](O[C@H]2C[C@@](C)(OC)[C@@H](O)[C@H](C)O2)[C@H](C)[C@@H](O[C@@H]2O[C@H](C)C[C@H](N(C)C)[C@H]2O)[C@](C)(OC)C[C@@H](C)C(=O)[C@H](C)[C@@H](O)[C@]1(C)O [CLR, clarithromycin, reference compound]
restoration of HDAC activity compared with Example 33 (HDAC activity; PMA-differentiated U937, H2O2 200 μM 4 hrs): only at much higher doses than Example 33
HDAC activity reached compared with untreated controls (HDAC activity; PMA-differentiated U937): only restore HDAC activity to levels comparable to untreated controls
restoration of H2O2-reduced HDAC activity (%) (HDAC activity): 14%
inhibition of Akt phosphorylation compared with Example 33 (Akt; PMA-differentiated U937, H2O2 1 mM 30 min): only at much higher concentrations than Example 33
inhibition of LPS-induced IL-8 release compared with Example 33 (IL-8; LPS 100 ng/ml 4 hrs): at higher concentrations than Example 33
IL-8 inhibition (%) (IL-8): 17%
inhibition of LPS-induced TNFα release compared with Example 33 (TNFα; LPS 100 ng/ml 4 hrs): at higher concentrations than Example 33
TNFα inhibition (%) (TNFα): 21%
MMP9 inhibition (%) (MMP9): 8 (22) %
restoration of dexamethasone sensitivity (U937 cells): None of ERY, CLR, or AZI restored dexamethasone sensitivity
Cell Toxicity (% cell death) ([1]; human): −7%

Structure (SMILES): CC[C@H]1OC(=O)[C@H](C)C(=O)[C@H](C)[C@@H](O[C@H]2C[C@@H](N(C)C)[C@H](O)[C@@H](C)O2)[C@@](C)(OC)C[C@@H](C)C(=O)[C@H](C)[C@H]2N(CCCCn3cc(-c4ccccn4)nn3)C(=O)O[C@]12C [Example 21]
restoration of H2O2-reduced HDAC activity (%) (HDAC activity): 36%
IL-8 inhibition (%) (IL-8): 59%
TNFα inhibition (%) (TNFα): 14%
MMP9 inhibition (%) (MMP9): 49 (41) %
Cell Toxicity (% cell death) ([1]; test concentration not given): 3%
MIC K. pneumonia 13883 (K. pneumonia 13883): >64
MIC H. influenzae ATCC 49247 (H. influenzae ATCC 49247): > 64 µg/mL
MIC H. influenzae LC002 (H. influenzae LC002): > 64 µg/mL
MIC S. pneumoniae ATCC 49619 (S. pneumoniae ATCC 49619): > 64 µg/mL
MIC S. aureus ATCC 29213 (MSSA) MLS-S [2]: > 64 µg/mL
MIC S. aureus MRSA 33591 (S. aureus MRSA 33591): > 64 µg/mL
MIC E. faecium ATCC 19434 (E. faecium ATCC 19434): > 64 µg/mL

Structure (SMILES): CCC1OC(=O)C(C)C(OC2CC(C)(OC)C(O)C(C)O2)C(C)C(OC2OC(C)CC(N(C)C)C2O)C(C)(O)CC(C)CN(C(C)=O)C(C)C2OC(=O)OC12C (centres unmarked) [Example 33]
HDAC activity reached compared with untreated controls (HDAC activity; PMA-differentiated U937): higher than untreated controls
concentration at which the H2O2-induced reduction in HDAC activity is restored (HDAC activity; PMA-differentiated U937, pretreated 20 min, H2O2 200 μM 4 hrs): ≥ 10 µM
concentration at which restoration of HDAC activity is statistically significant (HDAC activity; p<0.01 versus H2O2 only, n=4): ≥ 30 µM
concentration at which CSE-induced reduction of HDAC2 mRNA expression is reversed (HDAC2 mRNA; A549, pretreated 30 min, CSE 0.15 O.D. 1 hr): ≥ 10 µM
concentration at which reversal of HDAC2 mRNA reduction is statistically significant (HDAC2 mRNA; p<0.05 versus CSE only, n=3): ≥ 30 µM
concentration at which inhibition of Akt phosphorylation is statistically significant (Akt; p<0.05 versus H2O2 only, n=3 or 4): ≥ 100 µM
IC50 (IL-8): 95 ± 14 µM
concentration at which LPS-induced IL-8 release is inhibited (IL-8; pretreated 1 hr, LPS 100 ng/ml 4 hrs, p<0.05, n=3): ≥ 100 µM
IC50 (TNFα): 97 ± 5 µM
concentration at which LPS-induced TNFα release is inhibited (TNFα; pretreated 1 hr, LPS 100 ng/ml 4 hrs, p<0.01, n=3): ≥ 100 µM
IC50 (MMP9; PMA-induced MMP9 expression, U937, NA = inactive): 56 ± 19 µM
concentration at which PMA-induced MMP9 up-regulation is inhibited (MMP9; U937, pretreated 1 hr, PMA 50 ng/ml 48 hrs): ≥ 33 µM
concentration at which inhibition of MMP9 up-regulation is statistically significant (MMP9; p<0.05 versus PMA only, n=3): ≥ 100 µM
